{"source": "patent US20230064324A1", "about": "“NEW USES FOR STEVIOL” (SUNTORY HOLDINGS LIMITED, priority 2019, published 2023)", "test_system": "PC12 cells (clone HS)", "experiment": "Neurite elongation-promoting effect on PC12 cells (neurite length per cell, Operetta CLS)", "type": "cell-based, Rat", "conditions": "for Relative neurite length (%): 3 days, negative control=100%", "description": "PC12 cells (clone HS) were precultured using a growth medium in the same manner as in Example 1. […] The cells thus cultured were subjected to cell membrane staining using Cell Membrane Stain attached to Neurite Outgrowth Staining Kit (Thermo Fisher Scientific Inc.) and nuclear staining using Hoechst 33342 (Cat. No. H3570). Specifically, the medium was replaced with 100 μL of a fixative and staining solution (prepared by adding a 1/1000 amount each of Cell Membrane Stain (1000×) and Hoechst 33342 and a 1/25 amount of a formaldehyde solution (Cat. No. 061-00416, FUJIFILM Wako Pure Chemical Corp.) to DPBS (++) (Cat. No. 14040133, Thermo Fisher Scientific Inc.)), followed by incubation for 20 minutes in a CO2 incubator (5% CO2, 37° C., humid). […] Photographing and quantitative analysis were carried out using Operetta CLS (Perkin Elmer, Inc.), and a neurite length per cell was calculated. Nine fields of view at the center of each well were photographed using a 10× objective lens. A test medium supplemented with 50 ng/mL NGF was used as a positive control, and a vehicle control composed of a differentiation medium supplemented with 0.1% DMSO (final concentration) was used as a negative control.", "data": [{"smiles": "C=C1C[C@@]23CC[C@H]4[C@@](C)(CCC[C@@]4(C)C(=O)O)[C@@H]2CC[C@]1(O)C3", "note": "[Steviol]", "values": [{"measurement": "neurite elongation (in words)", "setting": "PC12 cells, varying concentrations of steviol", "result": "promoted neurite elongation in a concentration-dependent manner"}, {"measurement": "Relative neurite length (%)", "setting": "steviol 12.5 μg/mL", "result": 133.3, "unit": "%"}, {"measurement": "Relative neurite length (%)", "setting": "steviol 25 μg/mL", "result": 180.9, "unit": "%"}, {"measurement": "Relative neurite length (%)", "setting": "steviol 50 μg/mL", "result": 235.2, "unit": "%"}, {"measurement": "Relative neurite length (%)", "setting": "steviol 100 μg/mL", "result": 307.7, "unit": "%"}, {"measurement": "Relative neurite length (%)", "setting": "steviol 200 μg/mL", "result": 308.6, "unit": "%"}]}]}
